Measurements from ChEMBL document CHEMBL4825772, “Protein Degradation Inducers of Androgen Receptor by Conjugation of Antagonists Androgen Receptor and E3 Ligase Ligand” (ACS Med Chem Lett, 2021).

Target: Protein cereblon/Androgen receptor (Homo sapiens, UniProt P10275+Q96SW2)
Test: Protac activity at E3 ubiquitin ligase/androgen receptor in human LNCaP cells assessed as induction of androgen receptor degradation incubated for overnight by sandwich ELISA
Type: cell-based

Protein cereblon/Androgen receptor, sequence (P10275 whole entry): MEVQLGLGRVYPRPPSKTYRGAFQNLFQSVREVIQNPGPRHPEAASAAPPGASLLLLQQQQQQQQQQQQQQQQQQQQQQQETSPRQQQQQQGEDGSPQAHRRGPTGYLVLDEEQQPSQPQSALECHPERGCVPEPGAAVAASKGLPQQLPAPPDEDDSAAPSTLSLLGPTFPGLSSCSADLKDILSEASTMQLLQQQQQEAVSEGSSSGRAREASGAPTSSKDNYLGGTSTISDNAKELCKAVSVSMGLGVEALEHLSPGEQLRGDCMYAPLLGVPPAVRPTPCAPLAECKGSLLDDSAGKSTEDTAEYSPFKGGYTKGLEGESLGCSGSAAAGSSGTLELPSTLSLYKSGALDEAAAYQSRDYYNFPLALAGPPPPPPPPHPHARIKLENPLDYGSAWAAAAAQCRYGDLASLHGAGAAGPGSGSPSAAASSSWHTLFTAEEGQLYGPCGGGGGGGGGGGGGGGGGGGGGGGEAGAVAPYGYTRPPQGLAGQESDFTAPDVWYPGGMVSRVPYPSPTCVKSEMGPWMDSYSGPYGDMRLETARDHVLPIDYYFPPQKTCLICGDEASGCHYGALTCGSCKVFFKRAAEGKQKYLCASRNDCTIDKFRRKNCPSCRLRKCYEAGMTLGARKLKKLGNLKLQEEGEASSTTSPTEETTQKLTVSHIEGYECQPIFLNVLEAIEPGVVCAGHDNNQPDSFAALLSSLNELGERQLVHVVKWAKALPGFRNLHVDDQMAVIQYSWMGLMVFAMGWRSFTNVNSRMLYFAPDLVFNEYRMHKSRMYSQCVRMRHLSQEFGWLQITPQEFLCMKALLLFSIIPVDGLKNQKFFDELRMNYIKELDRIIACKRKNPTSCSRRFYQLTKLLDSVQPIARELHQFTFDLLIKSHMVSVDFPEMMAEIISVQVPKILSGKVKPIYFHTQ
Protein cereblon/Androgen receptor, sequence (Q96SW2 whole entry): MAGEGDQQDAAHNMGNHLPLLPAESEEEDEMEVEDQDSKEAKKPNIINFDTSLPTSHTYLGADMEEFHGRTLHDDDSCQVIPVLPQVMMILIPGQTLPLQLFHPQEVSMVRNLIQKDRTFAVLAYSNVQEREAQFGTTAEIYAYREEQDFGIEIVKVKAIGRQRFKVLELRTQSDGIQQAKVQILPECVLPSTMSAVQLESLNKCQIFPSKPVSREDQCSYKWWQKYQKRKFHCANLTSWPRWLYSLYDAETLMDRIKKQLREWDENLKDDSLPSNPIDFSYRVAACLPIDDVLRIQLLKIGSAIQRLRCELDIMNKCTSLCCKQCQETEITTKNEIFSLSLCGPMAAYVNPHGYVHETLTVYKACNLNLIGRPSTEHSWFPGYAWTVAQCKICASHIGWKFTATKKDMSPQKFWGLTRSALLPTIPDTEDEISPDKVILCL

SMILES	DC50 [nM]
N#Cc1ccc(N2CCc3c(ncnc3Nc3ccc(C(=O)NCC(=O)N4CCC(CN5CCN(c6cc7c(cc6F)C(=O)N(C6CCC(=O)NC6=O)C7=O)CC5)CC4)c(F)n3)C2)cc1Cl (configuration not stated)	2.8
N#Cc1ccc(N2CCc3c(ncnc3Nc3ccc(C(=O)N4CCC(CN5CCN(c6ccc7c(c6)C(=O)N(C6CCC(=O)NC6=O)C7=O)CC5)CC4)c(F)n3)C2)cc1Cl (configuration not stated)	3.2
CN(C1CCN(C(=O)c2ccc(Nc3ncnc4c3CCN(c3ccc(C#N)c(Cl)c3)C4)nc2F)CC1)C1CCN(c2cc3c(cc2F)C(=O)N(C2CCC(=O)NC2=O)C3=O)CC1 (configuration not stated)	16.6
N#Cc1ccc(N2CCc3c(ncnc3Nc3ccc(C(=O)NC4CCN(CC5CCN(c6ccc7c(c6)C(=O)N(C6CCC(=O)NC6=O)C7=O)CC5)CC4)c(F)n3)C2)cc1Cl (configuration not stated)	8.5
N#Cc1ccc(N2CCc3c(ncnc3Nc3ccc(C(=O)N[C@H]4CC[C@H](CN5CCN(c6cc7c(cc6F)C(=O)N(C6CCC(=O)NC6=O)C7=O)CC5)CC4)c(F)n3)C2)cc1Cl (some centres not stated)	9.2
C[C@H]1CN(c2ccc3c(c2)C(=O)N(C2CCC(=O)NC2=O)C3=O)CCN1C[C@H]1CC[C@H](NC(=O)c2ccc(Nc3ncnc4c3CCN(c3ccc(C#N)c(Cl)c3)C4)nc2F)CC1 (some centres not stated)	9.1
CN(C1CCN(C(=O)c2ccc(Nc3ncnc4c3CCN(c3ccc(C#N)c(Cl)c3)C4)nc2F)CC1)C1CCN(c2ccc3c(c2)C(=O)N(C2CCC(=O)NC2=O)C3=O)CC1 (configuration not stated)	4.82
C[C@@H]1CN(c2ccc3c(c2)C(=O)N(C2CCC(=O)NC2=O)C3=O)CCN1C[C@H]1CC[C@H](NC(=O)c2ccc(Nc3ncnc4c3CCN(c3ccc(C#N)c(Cl)c3)C4)nc2F)CC1 (some centres not stated)	5.3
N#Cc1ccc(N2CCc3c(ncnc3Nc3ccc(C(=O)NC4CCN(C5CCN(c6ccc7c(c6)C(=O)N(C6CCC(=O)NC6=O)C7=O)CC5)CC4)c(F)n3)C2)cc1Cl (configuration not stated)	4.9
N#Cc1ccc(N2CCc3c(ncnc3Nc3ccc(C(=O)NCCC(=O)N4CCC(CN5CCN(c6cc7c(cc6F)C(=O)N(C6CCC(=O)NC6=O)C7=O)CC5)CC4)c(F)n3)C2)cc1Cl (configuration not stated)	7.7
N#Cc1ccc(N2CCc3c(ncnc3Nc3ccc(C(=O)N4CCC(CN5CCN(c6cc7c(cc6F)C(=O)N(C6CCC(=O)NC6=O)C7=O)CC5)CC4)c(F)n3)C2)cc1Cl (configuration not stated)	11.6
N#Cc1ccc(N2CCc3c(ncnc3Nc3ccc(C(=O)NCCCCCCN4CCN(c5ccc6c(c5)C(=O)N(C5CCC(=O)NC5=O)C6=O)CC4)c(F)n3)C2)cc1Cl (configuration not stated)	3
